What was measured:
Type in all cases: cell-based
[1] = tested on: endodontic biofilms from root canals; test: Disruption of endodontic biofilms (xCELLigence); settings: 16 μg/ml in suspension, added after 6 h of growth
Procedure: FIG. 4.1. Disruption of endodontic biofilms using platinum and silica nanoparticles loaded with metronidazole. Endodontic biofilms were cultured in the xCELLigence system and after 6 hours of growth they were treated with 1 mg/ml of nanoparticles containing 2.25 μg of metronidazole, or with metronidazole in suspension at a concentration of 16 μg/ml, and compared to the untreated control (black curve). The black arrow indicates the time when the biofilm was treated. The biofilm comes from root canal samples extracted during a root canal and contains a complex microbial community formed by dozens of bacteria that cause this infection. Endodontic biofilms from root canals were collected with sterile files and placed in 1 ml of VMG (Ill) transport medium ([…] et al., 1993). Subsequently, the samples were transported to the laboratory where they were subjected to stirring for 3 minutes. Then, the files were extracted, the samples were centrifuged for 5 min at 10,000 rpm and the supernatant was discarded. The obtained pellet was resuspended with 1 ml of BHI (brain-heart infusion) culture medium and the samples were cultured in micro dilution plates of the xCELLigence impedance measurement system for 6 h, following the protocol described by Mira et al. 2019 (J Oral Microbiol). […]

[2] = tested on: polymicrobial oral biofilms (dental plaque); test: Effect on preformed oral biofilms derived from saliva (xCELLigence); settings: 16 μg/ml, two donors (A, B)
Procedure: FIG. 5.1. Effect of platinum and mesoporous silica nanoparticles loaded with metronidazole on preformed oral biofilms derived from saliva samples of two independent donors (A and B). The biofilms were grown in the xCELLigence system for 6 hours, and subsequently treated with metronidazole in suspension (concentration of 16 μg/ml) or with nanoparticles loaded with metronidazole (1 mg/ml of nanoparticles containing 2.25 μg metronidazole). The black arrows indicate the time when the treatment was added, whereas the black curves represent the untreated control. The biofilm comes from saliva samples and contains a complex microbial community made up of dozens of dental plaque-forming bacteria. To investigate the effect of platinum (Pt) and mesoporous silica nanoparticles on polymicrobial oral biofilms (dental plaque), biofilms derived from the saliva of two independent donors were cultured in the xCELLigence system for 6 hours, following the protocol described by Mira et al. 2019 (J Oral Microbiol). Subsequently, free metronidazole (at a concentration of 16 μg/ml), or nanoparticles with metronidazole (1 mg/ml of nanoparticles containing 2.25 μg of metronidazole) was added to evaluate the effect on said biofilms. […]

[3] = tested on: Candida albicans biofilms; test: Eradication of mature Candida albicans biofilms (xCELLigence); settings: mature biofilms at 24 h; micafungin 1.5 μg/ml plus zymolyase 171 μg/ml, or 0.15% hydrogen peroxide
Procedure: Effect of platinum and mesoporous silica nanoparticles on the eradication of mature Candida albicans biofilms. C. albicans biofilms were cultured in the micro dilution plates of the xCELLigence system for 24 h and then treated with a combination of free micafungin together with zymolyase (an enzyme with the ability to disperse biofilm-forming cells), indicated in the legend as MZ, or with nanoparticles loaded with the antifungal micafungin and anchored with the enzyme zymolyase. […] The black curve represents the growth of the untreated biofilm and the black arrow indicates the time when the treatment was added.

SMILES | more biofilm formation compared to the untreated control [1] | effect on salivary biofilm growth [2] | effect on biofilm formation [3]
Cc1ncc([N+](=O)[O-])n1CCO [metronidazole] | up to 15% | induction of biofilm growth | 
OO [hydrogen peroxide] |  |  | induced the formation of biofilms

Reference: patent US20250352486A1, “NANOPARTICLES FOR USE IN THE TREATMENT OF INFECTIONS CAUSED BY BIOFILMS” (Universitat Politècnica De València, priority 2022, published 2025)
